Reference: patent US20150296781A1, “ACRYLATE/METHACRYLATE-BASED TRIBLOCK COPOLYMER/ANTHRANILIC DIAMIDE COMPOSITIONS FOR PROPAGULE COATING” (priority 2013, published 2015)

System: 2nd instar larva of Spodoptera frugiperda
Assay: Laboratory test with 2nd instar larva of Spodoptera frugiperda on maize leaves
Type: in vivo

## CNC(=O)c1cc(Cl)cc(C)c1NC(=O)c1cc(Br)nn1-c1ncccc1Cl [Compound 2, 3-bromo-N-[4-chloro-2-methyl-6-[(methylamino)carbonyl]phenyl]-1-(3-chloro-2-pyridinyl)-1H-pyrazole-5-carboxamide]
  concentration per g of leaf tissue resulting in 50% mortality within 72 h: 0.033 micrograms per g of leaf tissu
  concentration per g of tissue needed to achieve 100% mortality within 72 h: 0.037 micrograms per g of tissue
